A short description of data set [1]: Host cell cytotoxicity in the T. cruzi infection model. The format is cell-based, mouse. Particulars: mouse. Put shortly:
(§1)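 C2C12 murine cardiomyoblasts infected with T. cruzi were incubated with compound 48 h at 37 °C, fixed in 2% PFA and stained with 5 μg/ml DAPI. Automated microscopy imaging quantified host cells and parasites separately; host cytotoxicity derived as CC50.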

Data set [2] deals with T. cruzi (Ca-I/72) in C2C12 murine cardiomyoblasts. Briefly: T. cruzi-infected murine cardiomyoblasts (C2C12). The class given is cell-based, Trypanosoma cruzi. Particulars: for EC50: read-out: EC50 T. cruzi-infected cardiomyoblasts. In a few lines: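 C2C12 mouse cardiomyoblasts infected with T. cruzi Ca-I/72 (10^3 and 10^4 parasites) and exposed to 3-fold serial dilutions of inhibitor from a 10 μM maximum, 48 h at 37° C. After PFA fixation and DAPI staining, automated imaging quantified parasites and host cells, giving EC50 and host CC50.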

A further data set relates to human dermal fibroblasts. Briefly: Human cell toxicity, resazurin viability. The class given is cell-based. Put shortly: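 Primary human dermal fibroblasts, 2400 cells/well, exposed in duplicate to inhibitors at final 0.001-0.1 mM in 1% DMSO (1% DMSO control) for 48 h at 37 °C. Resazurin then added and viability read by fluorescence (544/590 nm) after further 24 h.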
A general note: Resazurin is reduced to fluorescent resorufin, in cell work by metabolically active cells.

A short description of data set [3]: Solubility of cruzain inhibitors in 10% DMSO, light scattering. The class given is physicochemical. The procedure:
Synthetic PVHIs such as 5-16 and 22-24 at final concentrations of 1-200 μM were added to 0.25 mL solutions of 10% DMSO (v/v) in clear 96-well Greiner plates, and absorbance at 620 nm was measured using a BioTek M2 Synergy plate reader at t=0 and 120 min to evaluate increased light scattering and precipitated inhibitor.

In data set [4] the test system is C2C12 mouse cardiomyoblast cell line. Briefly: Host cell cytotoxicity in the T. cruzi infection model. The class given is cell-based. In a few lines:
as §1

For a further data set, the target named is SARS-CoV-2 3CL protease (Severe acute respiratory syndrome coronavirus 2 (2019-nCoV) (SARS-CoV-2), UniProt P0DTD1). Briefly: biochemical. The class given is biochemical. Particulars: pH 7.5; for Ki: read-out: Ki* 3CLpro.
For data set [5], the system named is SARS-CoV-2 in Vero E6 cells. The data set can be described thus: Anti-CoV-2 activity in Vero E6 cells. The format is cell-based.
In data set [6] the test system is trypanosomes (T. b. brucei, T. cruzi). Briefly: Anti-trypanosomal activity, culture not stated. The format is cell-based. Particulars: culture (T. b. brucei PCF/BSF or T. cruzi-infected cardiomyoblasts) not stated.
The conditions of data set [7]: mice, intravenous administration, data not shown.
A short description of data set [8]: Detection of aldehyde content using phenylhydrazine. The format is physicochemical. Particulars: aqueous buffer, 1 mM phenylhydrazine, 2 hours. As to the method: Detection of Aldehyde Content Using Phenylhydrazine. In a 96-well clear microplate, compounds 52 and 36 in DMSO solutions, or pure DMSO as a control, were diluted into the above NMR buffer without addition of DTT to make 250 μL-samples, each containing 0.2 mM of compounds and 10% DMSO (v/v). Upon addition of 1M phenylhydrazine (0.25 μL), the formation of phenylhydrazone in these wells were continuously monitored for 2 hours by measuring UV absorbance at the maximal wavelength of 282 nm.

The mark [9] stands for this setting: Trypanosoma cruzi, C2C12, C2C12 murine cardiomyoblasts.

Molecules are shown by their SMILES. Values joined by “and” are separate entries in the source; they are usually repeats but may differ in a detail not shown here. Equal entries are not always repeated. “Also recorded” adds a separate entry of the source. Where two headings read alike, the source gives them in different places.

As usually defined, the CC50 is the concentration giving 50% cytotoxicity. In general, EC50 refers to the concentration giving half of the maximal effect. As to `O=C(N[C@@H](Cc1ccccc1)C(=O)N[C@H](/C=C/c1ccccn1)Cc1ccccc1)OCc1ccccc1` [Compound 11, Benzyl ((S)-1-Oxo-3-phenyl-1-(((S,E)-1-phenyl-4-(pyridin-2-yl)-but-3-en-2-yl)amino)propan-2-yl)carbamate], the CC50 at 48 h in data set [1] (host cardiomyoblasts, read-out: C2C12 Cytotoxicity CC50) was > 10 µM. Moreover, the EC50 in data set [2] (C2C12 murine cardiomyoblasts) was in the range of 5 to 10 µM; in [2] (setting [9]) it was 5 to 8 µM. Besides, the CC50 in the data set with human dermal fibroblasts (human dermal fibroblasts, read-out: Human Cell Cytotoxicity CC50) is > 100 µM.

A word on the solubility: it is the dissolved amount per volume that the medium holds. Regarding `C[n+]1ccccc1/C=C/[C@H](Cc1ccccc1)NC(=O)[C@H](Cc1ccccc1)NC(=O)OCc1ccccc1.[I-]` [Compound 12, 2-((S,E)-3-((S)-2-(((Benzyloxy)carbonyl)amino)-3-phenylpropanamido)-4-phenylbut-1-en-1-yl)-1-methylpyridin-1-ium Iodide], the solubility in data set [3] (in 10% DMSO) was ≥ 50 µM. Further, the half-maximal cytotoxic concentration (CC50) at 48 h in data set [1] is > 10 µM. Moreover, the results for the EC50 in [2] (C2C12 murine cardiomyoblasts) and in [2] (setting [9]) were 9.9 ± 0.5 µM and 5 to 8 µM, respectively. The “Selectivity Index CC50/EC50” value in data set [2] (CC50 human dermal fibroblasts / EC50 infected cardiomyoblasts) is given as >10. Also, in the data set on human dermal fibroblasts (human, 48 h), the CC50 was > 100 µM.

As to `C[n+]1ccccc1/C=C/[C@H](CCc1ccccc1)NC(=O)[C@H](Cc1ccccc1)NC(=O)OCc1ccccc1` [Compound 15, 2-((S,E)-3-((S)-2-(((Benzyloxy)carbonyl)amino)-3-phenylpropanamido)-5-phenylpent-1-en-1-yl)-1-methylpyridin-1-ium], the solubility in data set [3] is ≥ 50 µM. For the same compound, the CC50 was > 10 µM in [4] and > 100 µM in the data set on human dermal fibroblasts. In data set [2] (C2C12 murine cardiomyoblasts), the EC50 was 5.4 ± 0.9 µM.

Usually Ki stands for a dissociation constant, usually derived from enzyme kinetics or from competition with a known ligand. Take `O=C(N[C@@H](Cc1ccccc1)C(=O)N[C@H]1Cc2ccccc2OC1O)OCc1ccccc1` (stereo partly shown) [Compound 30]: the CC50 in [4] was > 10 µM. In [2] (C2C12 murine cardiomyoblasts), the EC50 was 5 to 8 µM and 3 µM and 3 to 5.7 µM. Further, on SARS-CoV-2 3CL protease, the “Ki* 3CLpro” value is given as “not an inhibitor of 3CL protease” and the Ki is > 10 µM. For the same compound, the 50% effective concentration (EC50) in data set [5] was 5 µM and 2.5 to 7.5 µM.

As to `CN1CCN(C(=O)NC(Cc2ccccc2)C(=O)NC2Cc3ccccc3OC2O)CC1` (stereo not shown) [Compound 36], the EC50 is 0.5 to 29 µM in data set [6]; 29 µM and ~30 µM in [2] (C2C12 murine cardiomyoblasts); 7.5 µM in data set [5]. The half-life entry in data set [7] was “short half-life”. Also, the inhibitory constant (Ki) at SARS-CoV-2 3CL protease is > 10 µM. In data set [8], the “free aldehyde by phenylhydrazine treatment” value is given as “no free aldehyde could be detected; also recorded: remained intact after 2 hours”.

Source of the values: patent publication US20240150396A1 (The Texas A&M University System, priority 2021, published 2024).
